The source of these data is patent US11572590B2, “Methods for evaluating tumor cell spheroids using 3D microfluidic cell culture device” (Dana-Farber Cancer Institute, Inc., priority 2017, dated 2023).

Holding throughout (experiment): SelectScreen Kinase Profiling, single point inhibition and IC50 for off-target kinases
Holding throughout (assay type): biochemical

Test [1] concerns the target T1, off-target kinases (Homo sapiens, UniProt Q6PHR2).
T1 sequence (Q6PHR2 1-472): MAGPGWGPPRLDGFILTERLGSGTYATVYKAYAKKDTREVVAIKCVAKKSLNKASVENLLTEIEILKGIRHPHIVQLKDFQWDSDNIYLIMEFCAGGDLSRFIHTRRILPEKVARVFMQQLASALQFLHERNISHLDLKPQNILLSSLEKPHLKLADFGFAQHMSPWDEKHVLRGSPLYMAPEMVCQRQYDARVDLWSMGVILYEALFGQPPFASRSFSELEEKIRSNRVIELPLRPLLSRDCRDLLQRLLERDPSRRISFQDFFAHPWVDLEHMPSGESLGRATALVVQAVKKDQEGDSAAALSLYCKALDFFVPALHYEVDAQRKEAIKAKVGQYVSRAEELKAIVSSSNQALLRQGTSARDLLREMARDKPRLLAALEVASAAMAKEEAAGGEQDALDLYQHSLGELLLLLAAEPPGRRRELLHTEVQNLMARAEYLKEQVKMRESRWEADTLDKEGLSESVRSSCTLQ
To be noted: ULK3, LanthaScreen Binding. Background: Time-resolved FRET reads energy transfer from a long-lived donor to a nearby acceptor.

Test [2] deals with off-target kinases (Homo sapiens, UniProt O00238). The conditions noted are these: BMPR1B (ALK6), LanthaScreen Binding.
The target of test [3] is off-target kinases (Homo sapiens, UniProt Q16584). To be noted: MAP3K11 (MLK3), LanthaScreen Binding.
Test [4] addresses T2, off-target kinases (Homo sapiens, UniProt Q16832, T654M).
T2 sequence (Q16832 22-855 T654M): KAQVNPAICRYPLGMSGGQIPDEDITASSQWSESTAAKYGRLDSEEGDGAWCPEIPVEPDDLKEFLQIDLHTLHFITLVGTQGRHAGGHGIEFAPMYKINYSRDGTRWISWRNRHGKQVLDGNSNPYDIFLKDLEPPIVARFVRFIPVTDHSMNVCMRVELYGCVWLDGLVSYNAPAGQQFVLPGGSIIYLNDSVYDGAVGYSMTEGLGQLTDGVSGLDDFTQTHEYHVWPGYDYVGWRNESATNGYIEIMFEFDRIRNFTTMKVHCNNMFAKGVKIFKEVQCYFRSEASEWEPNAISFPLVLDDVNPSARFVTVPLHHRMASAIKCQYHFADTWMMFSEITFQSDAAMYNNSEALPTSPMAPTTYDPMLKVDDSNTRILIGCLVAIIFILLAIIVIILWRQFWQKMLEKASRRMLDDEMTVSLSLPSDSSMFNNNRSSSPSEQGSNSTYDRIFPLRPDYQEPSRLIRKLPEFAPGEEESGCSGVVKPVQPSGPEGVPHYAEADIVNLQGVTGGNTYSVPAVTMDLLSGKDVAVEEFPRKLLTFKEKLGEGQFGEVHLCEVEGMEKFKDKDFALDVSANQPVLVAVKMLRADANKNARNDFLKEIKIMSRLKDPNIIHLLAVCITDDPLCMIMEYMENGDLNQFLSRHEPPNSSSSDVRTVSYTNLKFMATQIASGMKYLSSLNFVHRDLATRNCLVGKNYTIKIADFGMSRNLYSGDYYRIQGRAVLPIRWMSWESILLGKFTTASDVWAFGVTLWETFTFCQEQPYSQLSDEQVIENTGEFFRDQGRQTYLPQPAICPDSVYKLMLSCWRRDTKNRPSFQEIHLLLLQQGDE
The conditions noted are these: DDR2 T654M, LanthaScreen Binding.

Test [5] deals with off-target kinases (Homo sapiens, UniProt P49137). To be noted: MAPKAPK2, ZLYTE, ATP Km app.

Like-named read-outs stand apart in the source and are kept apart here.

off-target kinases (Homo sapiens, UniProt O00238), sequence (O00238 14-502): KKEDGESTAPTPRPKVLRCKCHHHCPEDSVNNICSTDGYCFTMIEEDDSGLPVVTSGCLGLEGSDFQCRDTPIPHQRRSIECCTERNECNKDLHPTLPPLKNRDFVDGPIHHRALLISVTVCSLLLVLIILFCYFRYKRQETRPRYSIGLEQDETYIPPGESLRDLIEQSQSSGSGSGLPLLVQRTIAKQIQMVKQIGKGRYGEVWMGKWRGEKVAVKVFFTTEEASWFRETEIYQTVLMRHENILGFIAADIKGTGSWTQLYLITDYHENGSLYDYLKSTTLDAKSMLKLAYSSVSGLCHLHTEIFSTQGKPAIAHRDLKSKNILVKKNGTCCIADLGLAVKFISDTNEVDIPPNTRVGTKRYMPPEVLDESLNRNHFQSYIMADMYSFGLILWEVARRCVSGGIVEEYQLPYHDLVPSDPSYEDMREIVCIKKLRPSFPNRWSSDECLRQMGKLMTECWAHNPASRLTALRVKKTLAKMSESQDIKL
off-target kinases (Homo sapiens, UniProt P49137), sequence (P49137 whole entry): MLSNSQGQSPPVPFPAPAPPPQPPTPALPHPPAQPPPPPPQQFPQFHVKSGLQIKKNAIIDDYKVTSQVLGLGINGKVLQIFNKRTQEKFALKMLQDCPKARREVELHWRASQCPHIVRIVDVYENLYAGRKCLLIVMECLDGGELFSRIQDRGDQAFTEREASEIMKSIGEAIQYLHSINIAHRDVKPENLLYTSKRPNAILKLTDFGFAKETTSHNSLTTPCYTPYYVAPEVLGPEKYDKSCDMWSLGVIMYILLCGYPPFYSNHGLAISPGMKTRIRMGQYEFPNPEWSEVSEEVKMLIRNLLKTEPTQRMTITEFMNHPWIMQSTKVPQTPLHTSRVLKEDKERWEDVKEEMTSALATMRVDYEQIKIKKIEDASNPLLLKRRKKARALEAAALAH
off-target kinases (Homo sapiens, UniProt Q16584), sequence (Q16584 whole entry): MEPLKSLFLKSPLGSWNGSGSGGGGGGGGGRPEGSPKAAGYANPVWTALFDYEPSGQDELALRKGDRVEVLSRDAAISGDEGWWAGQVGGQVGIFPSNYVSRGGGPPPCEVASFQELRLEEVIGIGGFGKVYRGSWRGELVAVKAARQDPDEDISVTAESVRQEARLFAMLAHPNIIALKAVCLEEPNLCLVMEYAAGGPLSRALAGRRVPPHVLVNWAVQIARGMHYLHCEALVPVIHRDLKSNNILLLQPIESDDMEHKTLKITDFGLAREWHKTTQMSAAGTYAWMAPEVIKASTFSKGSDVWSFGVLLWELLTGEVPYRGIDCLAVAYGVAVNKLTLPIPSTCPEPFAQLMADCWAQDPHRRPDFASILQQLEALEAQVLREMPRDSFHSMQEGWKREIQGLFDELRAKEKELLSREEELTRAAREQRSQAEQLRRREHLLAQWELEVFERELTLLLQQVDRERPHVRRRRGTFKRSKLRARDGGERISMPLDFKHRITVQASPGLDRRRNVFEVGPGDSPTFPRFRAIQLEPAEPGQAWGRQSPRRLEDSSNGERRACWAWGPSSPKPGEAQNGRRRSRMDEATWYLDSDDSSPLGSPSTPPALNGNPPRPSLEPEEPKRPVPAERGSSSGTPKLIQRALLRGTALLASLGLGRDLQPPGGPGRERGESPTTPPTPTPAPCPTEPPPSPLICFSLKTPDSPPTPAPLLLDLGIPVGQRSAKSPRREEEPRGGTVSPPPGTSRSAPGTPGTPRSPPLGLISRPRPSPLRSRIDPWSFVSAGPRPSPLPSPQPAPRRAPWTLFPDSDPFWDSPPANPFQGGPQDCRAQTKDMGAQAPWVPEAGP

For orientation: inhibition means the drop in the measured response relative to a control, in per cent. Regarding `N#Cc1cc(-c2ncnc(Nc3ccc(N4CCN(C5COC5)CC4)cc3)n2)ccc1OC1CCOCC1` [Compound 1, 5-(4-((4-(4-(oxetan-3-yl)piperazin-1-yl)phenyl)amino)-1,3,5-triazin-2-yl)-2-((tetrahydro-2H-pyran-4-yl)oxy)benzonitrile], the inhibition at off-target kinases [1] (read-out: % Inhibition 1) is 101%; on off-target kinases [1] (read-out: % Inhibition 2) it was 104%; at off-target kinases [1] (read-out: % Inhibition Avg) it was 102%; at off-target kinases [2] (read-out: % Inhibition 1), 56%; on off-target kinases [2] (read-out: % Inhibition 2) it was 60%; on off-target kinases [2] (read-out: % Inhibition Avg) it was 58%. Besides, the inhibition at off-target kinases [3] (read-out: % Inhibition 1) stood at 24%; on off-target kinases [3] (read-out: % Inhibition 2) it was 29%; at off-target kinases [3] (read-out: % Inhibition Avg) it was 26%; at off-target kinases [4] (read-out: % Inhibition 1), 56%; on off-target kinases [4] (read-out: % Inhibition 2), 57%; at off-target kinases [4] (read-out: % Inhibition Avg), 57%. The inhibition at off-target kinases [5] (read-out: % Inhibition 1) was 0%; at off-target kinases [5] (read-out: % Inhibition 2), -1%; on off-target kinases [5] (read-out: % Inhibition Avg), 0%.
